Experimental data: patent publication US9745299B2, “Substituted tricyclic benzimidazoles as kinase inhibitors” (SELVITA SA, priority 2012, dated 2017)
Counter-ions that a name gives are not always drawn.

How the values were obtained:
[1] = molecular target: T1, CDK9/CyclinT (Homo sapiens, UniProt P50750); test: ADP-Glo Kinase Assay, CDK9/CyclinT; type: biochemical; settings: read-out: % inhibition at 1 μM CDK9/CyclinT; also: ATP at apparent Km (26 µM)
T1 construct: purchased Proqinase, Freiburg, Germany
Experimental: (§1) Testing of the compounds described in this invention was carried out using the ADP-Glo™ Kinase Assay from Promega Corporation (Madison, Wis., USA).
(§2) The ADP-Glo™ Kinase Assay is a luminescent ADP detection assay to measure kinase activity by quantifying the amount of ADP produced during a kinase reaction. The kinase assay is performed in kinase assay buffer (5 mM MOPS, pH 7.5, 5 mM MgCl2, 0.4 mM EDTA, 1.5 mM DTT). Test samples initially dissolved in DMSO at 10 mM were diluted with the assay buffer to 1000 nM. A 30 μL volume/well of a mixture of substrates containing ATP (final ATP concentration in each kinase assay was equal to its apparent ATP Km).
(§3) The assay was performed in two steps: first, after the kinase reaction, an equal volume of ADP-Glo™ Reagent was added to terminate the kinase reaction and deplete the remaining ATP. Second, the Kinase Detection Reagent was added to simultaneously convert ADP to ATP and allowed the newly synthesized ATP to be measured using a luciferase/luciferin reaction. The luminescent signal generated was proportional to the ADP concentration produced and was correlated with kinase activity.

[2] = molecular target: T2, CDK1/CyclinB (Homo sapiens, UniProt P06493); test: ADP-Glo Kinase Assay, CDK1/CyclinB; type: biochemical; settings: read-out: % inhibition at 1 μM CDK1/CyclinB; also: ATP at apparent Km (20 µM)
T2 construct: purchased Millipore, Billerica, Mass., USA
Experimental: Testing of the compounds described in this invention was carried out using the ADP-Glo™ Kinase Assay from Promega Corporation (Madison, Wis., USA). […] The ADP-Glo™ Kinase Assay is a luminescent ADP detection assay to measure kinase activity by quantifying the amount of ADP produced during a kinase reaction. The kinase assay is performed in kinase assay buffer (5 mM MOPS, pH 7.5, 5 mM MgCl2, 0.4 mM EDTA, 1.5 mM DTT). Test samples initially dissolved in DMSO at 10 mM were diluted with the assay buffer to 1000 nM. A 30 μL volume/well of a mixture of substrates containing ATP (final ATP concentration in each kinase assay was equal to its apparent ATP Km). […] The assay was performed in two steps: first, after the kinase reaction, an equal volume of ADP-Glo™ Reagent was added to terminate the kinase reaction and deplete the remaining ATP. Second, the Kinase Detection Reagent was added to simultaneously convert ADP to ATP and allowed the newly synthesized ATP to be measured using a luciferase/luciferin reaction. The luminescent signal generated was proportional to the ADP concentration produced and was correlated with kinase activity.

[3] = molecular target: T3, CDK2/CyclinE (Homo sapiens, UniProt P24941); test: ADP-Glo Kinase Assay, CDK2/CyclinE; type: biochemical; settings: read-out: % inhibition at 1 μM CDK2/CyclinE
T3 construct: purchased Millipore, Billerica, Mass., USA
Experimental: as §1, §2, §3

[4] = system: HCT116 cells; test: MTS viability assay, HCT116; type: cell-based; settings: Homo sapiens, HCT-116, HCT116, 72 hour incubation, read-out: IC50 [μM] HCT116 ED50
Excerpt: The viability of CDK8 expressing cells can be evaluated using a tetrazolium salt reduction cell-based assay. In viable cells this colorimetric assay can measure mitochondrial reduction of a tetrazolium component (MTS) into an […] formazan product. For MTS viability assay, human colon cancer cell lines were used (SW480 and HCT116 cell lines), containing elevated levels of CDK8 protein and highly dependent on its expression for proliferation [see, Firenstein et al. Nature 455 (25):547-551, (2008)]. These cell lines were used to determine the activity of the compounds provided herein to inhibit CDK8 in intact cells. Human tumor cell lines were obtained from ATCC (Rockville Md. USA). In each case, and by methods known to those practiced in the art of cell culture, vaiability was measured after 72 hour incubation with the compounds provided herein using a standard MTS protocol (CellTiter 96® AQueous Non-Radioactive Cell Proliferation Assay).
Briefly, cells were plated at 10,000-20,000 cells per well in DMEM medium supplemented with 10% fetal bovine serum. The compound plate was set up by aliquoting into column 1 of a 96-well plate, the negative control (DMSO), aliquoting into column 12 the positive control, and titrating the test compound in serial dilutions into columns 2-11. An aliquot from each well of the compound plate was transferred to the plated cells and then incubated at 37° C. in 5% CO2. 20 μL of MTS tetrazolium was added to each well of optical plate and the cells were incubated at 37° C. in 5% CO2 for 2 hours. The absorbance was measured at 490 nm using a microplate reader.

[5] = system: MV4-11 acute myelocytic leukemia (AML); test: Cytotoxic effects, MV4-11; type: cell-based, human
[6] = system: Rec-1 B-cell lymphoma; test: Cytotoxic effects, Rec-1; type: cell-based, human
[7] = system: IL6; test: LPS assay, IL-6 ELISA in RAW 264.7; type: cell-based, mouse; settings: RAW 264.7, 4 h pre-incubation, LPS 1 μg/ml for 6 h
Excerpt: (§4) The LPS assay was used to evaluate ability to respond to an inflammatory stimulus by mounting an acute phase response. The acute phase response is characterized by a dramatic increase in the production of a group of proteins by the liver. Bacterial LPS is an endotoxin, a potent inducer of the acute phase response and systemic inflammation. This response is induced by the production of TNFα, IL-1β, and IL-6 from activated monocytes and neutrophils in response to inflammatory stimuli. Evaluation of the three pro-inflammatory cytokines, TNFα, IL-1β, and IL-6, is the current standard method for evaluation of the ability of the immune system to mount an innate inflammatory immune response. In each case, and by methods known to those practiced in the art, RAW 264.7 Mouse leukaemic monocyte macrophage cells were plated at the density of 40 000 cells per well. Next day, cells were pre-incubated with tested compounds (fconc=10 μM) for 4 h and then stimulated with LPS (fconc=1 μg/ml) for 6 h. In the cell culture media IL-6 and TNFα levels were examined by ELISA using BD OptEIA™ Mouse IL-6 ELISA Set Cat. No 555240 and BD OptEIA™ Mouse TNFα ELISA Set Cat. No 555268 (BD Biosciences Pharmingen, SanDiego, Calif., USA), according to manufacturer's instructions.

[8] = system: TNFalpha; test: LPS assay, TNFα ELISA in RAW 264.7; type: cell-based, mouse; settings: RAW 264.7, 4 h pre-incubation, LPS 1 μg/ml for 6 h
Excerpt: as §4

T1 sequence (P50750 whole entry): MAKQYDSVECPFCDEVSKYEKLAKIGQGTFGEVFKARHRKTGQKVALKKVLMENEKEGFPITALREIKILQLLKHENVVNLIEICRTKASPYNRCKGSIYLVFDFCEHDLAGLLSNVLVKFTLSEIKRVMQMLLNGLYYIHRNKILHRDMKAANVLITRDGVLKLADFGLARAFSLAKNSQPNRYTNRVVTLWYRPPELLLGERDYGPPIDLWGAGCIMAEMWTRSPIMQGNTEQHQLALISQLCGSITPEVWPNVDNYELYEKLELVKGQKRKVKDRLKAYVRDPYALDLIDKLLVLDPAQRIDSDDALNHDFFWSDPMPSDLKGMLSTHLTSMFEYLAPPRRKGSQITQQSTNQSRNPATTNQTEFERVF
T1 sequence (O60563 whole entry partner): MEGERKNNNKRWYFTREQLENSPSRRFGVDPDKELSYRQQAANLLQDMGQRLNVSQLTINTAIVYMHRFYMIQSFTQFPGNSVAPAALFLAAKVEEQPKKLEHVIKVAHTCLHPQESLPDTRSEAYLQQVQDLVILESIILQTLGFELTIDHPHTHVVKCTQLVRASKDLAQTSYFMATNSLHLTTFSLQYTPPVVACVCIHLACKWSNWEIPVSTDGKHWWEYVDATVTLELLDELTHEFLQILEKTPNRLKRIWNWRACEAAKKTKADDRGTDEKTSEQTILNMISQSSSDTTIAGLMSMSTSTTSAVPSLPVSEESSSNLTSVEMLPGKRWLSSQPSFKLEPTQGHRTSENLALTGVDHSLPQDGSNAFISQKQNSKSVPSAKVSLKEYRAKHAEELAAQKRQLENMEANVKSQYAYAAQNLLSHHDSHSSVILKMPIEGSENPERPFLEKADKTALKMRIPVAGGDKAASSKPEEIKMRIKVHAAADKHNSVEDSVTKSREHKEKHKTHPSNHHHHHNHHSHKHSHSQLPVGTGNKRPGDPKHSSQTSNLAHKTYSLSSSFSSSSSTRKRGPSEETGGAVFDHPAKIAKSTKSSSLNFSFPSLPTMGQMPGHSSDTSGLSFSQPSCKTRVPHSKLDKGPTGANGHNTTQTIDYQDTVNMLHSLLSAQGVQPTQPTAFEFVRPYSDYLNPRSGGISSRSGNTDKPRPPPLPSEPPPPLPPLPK
T2 sequence (P06493 whole entry): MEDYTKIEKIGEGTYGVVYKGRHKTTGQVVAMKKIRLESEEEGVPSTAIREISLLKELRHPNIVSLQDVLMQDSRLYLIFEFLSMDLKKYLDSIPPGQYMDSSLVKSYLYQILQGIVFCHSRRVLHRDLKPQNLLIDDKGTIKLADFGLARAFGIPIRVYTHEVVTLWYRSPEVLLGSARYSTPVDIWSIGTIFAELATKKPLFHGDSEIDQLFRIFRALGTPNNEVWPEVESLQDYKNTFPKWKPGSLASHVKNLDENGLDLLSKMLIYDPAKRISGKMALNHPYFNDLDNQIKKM
T2 sequence (P14635 whole entry partner): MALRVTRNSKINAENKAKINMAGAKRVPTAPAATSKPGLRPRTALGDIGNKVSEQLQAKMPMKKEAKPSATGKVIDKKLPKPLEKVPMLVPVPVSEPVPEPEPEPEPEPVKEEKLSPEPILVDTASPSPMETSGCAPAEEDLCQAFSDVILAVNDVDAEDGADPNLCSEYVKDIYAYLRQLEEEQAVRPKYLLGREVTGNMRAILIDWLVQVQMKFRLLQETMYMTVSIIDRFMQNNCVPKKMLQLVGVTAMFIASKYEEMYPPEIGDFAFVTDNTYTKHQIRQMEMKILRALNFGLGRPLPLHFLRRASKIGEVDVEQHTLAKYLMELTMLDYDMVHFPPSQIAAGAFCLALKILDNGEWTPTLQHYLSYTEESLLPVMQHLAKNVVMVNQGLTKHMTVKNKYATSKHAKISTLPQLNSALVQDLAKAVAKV

| SMILES | inhibition at 1 µM [1] | inhibition at 1 µM [2] | inhibition at 1 µM [3] | IC50 [4] | cytotoxic effects [5] | cytotoxic effects [6] | LPS-induced IL6 production (FIG. 3) [7] | LPS-induced TNFalpha production (FIG. 3) [8] |
| --- | --- | --- | --- | --- | --- | --- | --- | --- |
| Cc1c(Br)c(Br)c2c3c1nc(N1CCNCC1)n3CCC2 [Example 1K] | 3% | 0% | 0% | 0.7 µM | showed cytotoxic effects | showed cytotoxic effects | – | – |
| Brc1c(Br)c2c3c(nc(N4CCNCC4)n3CCC2)c1Br [Example 6, 7,8,9-tribromo-2-(piperazin-1-yl)-5,6-dihydro-4H-imidazo[4,5,1-ij]quinoline maleate] | 55% | 38% | 0% | 0.4 µM | showed cytotoxic effects | showed cytotoxic effects | dose dependent reduction | dose dependent reduction |
